Data on one compound can be found in patent publication US20240383909A1, “CO-CRYSTALS” (INTRA-CELLULAR THERAPIES, INC., priority 2021, published 2024).

Each structure is given as a SMILES string. Converted amounts (≈) assume the structure as drawn.

The nature of this data set: Aqueous solubility of co-crystals (saturated solutions in water, liquid chromatography). The format is physicochemical. As to conditions: thermodynamic from solid, time point not stated, read-out: solubility for the Free Base (comparison). The protocol: The aqueous solubility of the co-crystals is determined by creating saturated solutions containing individual co-crystals in water. The saturated solutions are shaken for 24 hours at room temperature. Samples are taken at two timepoints (2 hours and 24 hours) and are filtered and diluted (acetonitrile/water 1:1) before measurement with liquid chromatography.

One may read the solubility as how much of the substance goes into solution per volume. On to `CN1C(=O)c2c(nn(Cc3ccc(-c4cccc(F)n4)cc3)c2Nc2ccccc2)N2C1=N[C@@H]1CCC[C@@H]12` [Free Base, (6aR,9aS)-5,6a,7,8,9,9a-hexahydro-5-methyl-3-(phenylamino)-2-((4-(6-fluoropyridin-2-yl)phenyl)methyl)-cyclopent[4,5]imidazo[1,2-a]pyrazolo[4,3-e]pyrimidin-4(2H)-one], for which the solubility is 1 µg/mL (≈ 1.97 µM).
